21 compounds from PubChem BioAssay AID330 (DTP/NCI, 2004) can be followed below.

This assay relates to P388 leukemia ip, CD2F1 mice, survival T/C. In words: NCI In Vivo Anticancer Drug Screen. Data for tumor model P388 Leukemia (intraperitoneal) in CD2F1 (CDF1) mice. Particulars: endpoint: median survival time, higher = longer survival. In outline:
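Mice carrying the transplanted tumor received test compound or vehicle. Survival was recorded in each group, and the value is the treated-group measurement divided by that of the vehicle-treated control group.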

Setting [1] is: dose: 50.0 mg/kg/injection, schedule: Q01DX005 (ip), vehicle: saline with Tween-80.
The mark [2] stands for this setting: dose: 100.0 mg/kg/injection, schedule: Q01DX001 (ip), vehicle: saline with Tween-80.
[3] abbreviates: dose: 200.0 mg/kg/injection, schedule: Q01DX001 (ip), vehicle: saline with Tween-80.
Setting [4] is: dose: 400.0 mg/kg/injection, schedule: Q01DX001 (ip), vehicle: saline with Tween-80.
The mark [5] stands for this setting: dose: 50.0 mg/kg/injection, schedule: Q01DX005 (ip), vehicle: Klucel (hydroxypropylcellulose) (HPC).
The mark [6] stands for this setting: dose: 100.0 mg/kg/injection, schedule: Q01DX005 (ip), vehicle: Klucel (hydroxypropylcellulose) (HPC).
The mark [7] stands for this setting: dose: 200.0 mg/kg/injection, schedule: Q01DX005 (ip), vehicle: Klucel (hydroxypropylcellulose) (HPC).
[8] abbreviates: dose: 100.0 mg/kg/injection, schedule: Q01DX005 (ip), vehicle: saline with Tween-80.
[9] abbreviates: dose: 200.0 mg/kg/injection, schedule: Q01DX005 (ip), vehicle: saline with Tween-80.
Where [10] appears, read: dose: 100.0 mg/kg/injection, schedule: Q01DX009 (ip), vehicle: saline with Tween-80.
The mark [11] stands for this setting: dose: 200.0 mg/kg/injection, schedule: Q01DX009 (ip), vehicle: saline with Tween-80.
Where [12] appears, read: dose: 60.0 mg/kg/injection, schedule: Q01DX005 (ip), vehicle: Klucel (hydroxypropylcellulose) (HPC).
Setting [13] is: dose: 120.0 mg/kg/injection, schedule: Q01DX005 (ip), vehicle: Klucel (hydroxypropylcellulose) (HPC).
The mark [14] stands for this setting: dose: 240.0 mg/kg/injection, schedule: Q01DX005 (ip), vehicle: Klucel (hydroxypropylcellulose) (HPC).
[15] abbreviates: dose: 100.0 mg/kg/injection, schedule: Q04DX003 (ip), vehicle: saline with Tween-80.

Where “and” joins values, the source holds several entries; their conditions need not be identical. Equal entries are not always repeated. Inconclusive results and toxic doses are left out.

For the compound `COC(=O)C1C(C2OC3OC(C)(C)OC3C3OC(C)(C)OC32)N1C(=O)Cl` (centres undefined), the T/C was 102 % of control (dose: 100.0 mg/kg/injection, schedule: Q04DX002 (ip), vehicle: saline with Tween-80) and 103 % of control (dose: 200.0 mg/kg/injection, schedule: Q04DX002 (ip), vehicle: saline with Tween-80).
Regarding `CN(C)c1ccc(N=NN=c2n(C)c3ccccc3n2C)c(Cl)c1`, the T/C (dose: 6.25 mg/kg/injection, schedule: Q01DX005 (ip), vehicle: saline with Tween-80) is 103 % of control; the T/C (dose: 12.5 mg/kg/injection, schedule: Q01DX005 (ip), vehicle: saline with Tween-80) was 106 % of control and 109 % of control; the T/C (dose: 25.0 mg/kg/injection, schedule: Q01DX005 (ip), vehicle: saline with Tween-80) is 113 % of control and 115 % of control; the T/C under setting [1] was 117 % of control.
As to `[O-]c1on[n+](-c2ccccc2-n2cccn2)c1-c1ccccc1`, the T/C runs as follows: under setting [2], 90 % of control; under setting [3], 91 % of control; under setting [4], 90 % of control.
Regarding `CCN(CC)CCOC(=O)C(C)c1cccc2c(=O)cc(-c3ccccc3)oc12` (centres undefined), the T/C by setting is: under setting [5], 90 % of control; under setting [6], 101 % of control; under setting [7], 101 % of control.
Consider `CCCCN(CCCC)C(=O)C(C)O` (centres undefined), for which the T/C is 108 % of control (dose: 25.0 mg/kg/injection, schedule: Q01DX005 (ip), vehicle: Klucel (hydroxypropylcellulose) (HPC)); 105 % of control under setting [5]; 110 % of control under setting [6]; 112 % of control under setting [7].
In the case of `CC(O)c1nc2ccccc2nc1C(=O)Nc1ccccc1N` (centres undefined), the T/C reads like this: under setting [1], 101 % of control; under setting [8], 88 % of control; under setting [9], 92 % of control.
Turning to `CCCCCCCCCCCC(=O)OCCN(CCOC(=O)CCCCCCCCCCC)C(=O)c1ccccc1`, the T/C is, setting by setting: (dose: 50.0 mg/kg/injection, schedule: Q01DX009 (ip), vehicle: saline with Tween-80) 95 % of control; under setting [10], 100 % of control; under setting [11], 93 % of control.
Take `CC(O)C(=O)NCO` (centres undefined): the T/C runs as follows: (dose: 50.0 mg/kg/injection, schedule: Q01DX005 (ip), vehicle: saline) 104 % of control; (dose: 100.0 mg/kg/injection, schedule: Q01DX005 (ip), vehicle: saline) 100 % of control; (dose: 200.0 mg/kg/injection, schedule: Q01DX005 (ip), vehicle: saline) 100 % of control.
`CC(=O)Nc1ccccc1/C=C/c1ccccn1`: the T/C is 106 % of control under setting [2], 106 % of control under setting [3] and 95 % of control under setting [4].
Consider `CN=C1CN=C(OP(=O)(N2CCOCC2)N2CCOCC2)c2cc(Cl)ccc2N1`, for which the T/C is 98 % of control (dose: 50.0 mg/kg/injection, schedule: Q01DX009 (ip), vehicle: Klucel (hydroxypropylcellulose) (HPC)); 101 % of control (dose: 100.0 mg/kg/injection, schedule: Q01DX009 (ip), vehicle: Klucel (hydroxypropylcellulose) (HPC)); 100 % of control (dose: 200.0 mg/kg/injection, schedule: Q01DX009 (ip), vehicle: Klucel (hydroxypropylcellulose) (HPC)).
Regarding `COc1cc(C(O)Cc2ccccc2)cc(OC)c1OC` (centres undefined), the T/C is 98 % of control (dose: 31.25 mg/kg/injection, schedule: Q01DX009 (ip), vehicle: saline + Tween-80 + alcohol); 109 % of control (dose: 62.5 mg/kg/injection, schedule: Q01DX009 (ip), vehicle: saline + Tween-80 + alcohol); 91 % of control (dose: 125.0 mg/kg/injection, schedule: Q01DX009 (ip), vehicle: saline + Tween-80 + alcohol); 89 % of control (dose: 250.0 mg/kg/injection, schedule: Q01DX009 (ip), vehicle: saline + Tween-80 + alcohol).
Regarding `Cc1ccc(-c2cc(=O)c3cc(C)c(C)c(C#N)c3o2)cc1`, the T/C runs as follows: (dose: 15.0 mg/kg/injection, schedule: Q01DX005 (ip), vehicle: Klucel (hydroxypropylcellulose) (HPC)) 94 % of control; (dose: 30.0 mg/kg/injection, schedule: Q01DX005 (ip), vehicle: Klucel (hydroxypropylcellulose) (HPC)) 87 % of control and 90 % of control; under setting [12], 90 % of control; under setting [13], 86 % of control and 88 % of control; under setting [14], 96 % of control.
Consider `Cc1cnc(Cl)nc1Sc1nc(N)nc2nc[nH]c12`, for which the T/C is, setting by setting: (dose: 4.0 mg/kg/injection, schedule: Q01DX009 (ip), vehicle: saline with Tween-80) 150 % of control; (dose: 12.5 mg/kg/injection, schedule: Q01DX009 (ip), vehicle: saline with Tween-80) 122 % of control; (dose: 25.0 mg/kg/injection, schedule: Q04DX003 (ip), vehicle: saline with Tween-80) 154 % of control; (dose: 50.0 mg/kg/injection, schedule: Q04DX003 (ip), vehicle: saline with Tween-80) 159 % of control; under setting [15], 100 % of control.
Turning to `C1OC1C1CO1` (centres undefined), the T/C was 113 % of control (dose: 10.0 mg/kg/injection, schedule: Q04DX003 (ip), vehicle: saline); 109 % of control (dose: 13.2 mg/kg/injection, schedule: Q01DX009 (ip), vehicle: saline); 113 % of control (dose: 20.0 mg/kg/injection, schedule: Q04DX003 (ip), vehicle: saline); 118 % of control (dose: 30.0 mg/kg/injection, schedule: Q01DX009 (ip), vehicle: saline); 95 % of control (dose: 40.0 mg/kg/injection, schedule: Q01DX009 (ip), vehicle: saline); 109 % of control (dose: 40.0 mg/kg/injection, schedule: Q04DX003 (ip), vehicle: saline).
For `CCCCCCCCCC[N+]1([O-])CCCCCC1`, the T/C (dose: 12.5 mg/kg/injection, schedule: Q01DX009 (ip), vehicle: saline) is 100 % of control; the T/C (dose: 25.0 mg/kg/injection, schedule: Q01DX009 (ip), vehicle: saline) is 106 % of control; the T/C (dose: 50.0 mg/kg/injection, schedule: Q01DX009 (ip), vehicle: saline) is 94 % of control.
As to `CC(C)CCNc1ncnc2c1cnn2C`, the T/C (dose: 25.0 mg/kg/injection, schedule: Q04DX003 (ip), vehicle: saline) is 95 % of control; the T/C (dose: 50.0 mg/kg/injection, schedule: Q04DX003 (ip), vehicle: saline) was 100 % of control; the T/C under setting [15] was 109 % of control.
Take `CC(=O)OCN1C(=O)N(COC(C)=O)C(c2ccccc2)(c2ccccc2)C1=O`: the T/C was 104 % of control under setting [12], 105 % of control under setting [13] and 103 % of control under setting [14].
As to `Cc1ccc(Cl)c(C(O)(C(F)(F)F)C(F)(F)F)c1`, the T/C (dose: 100.0 mg/kg/injection, schedule: Q01DX001 (ip), vehicle: other) is 95 % of control; the T/C under setting [2] is 108 % of control; the T/C (dose: 200.0 mg/kg/injection, schedule: Q01DX001 (ip), vehicle: other) is 92 % of control; the T/C under setting [3] is 108 % of control; the T/C under setting [4] was 93 % of control.
As to `O=P(c1ccccc1)(c1ccccc1)c1ccccc1.O=P(c1ccccc1)(c1ccccc1)c1ccccc1.S=C=[N][Sn]([N]=C=S)([N]=C=S)[c]1ccccc1`, the T/C reads like this: (dose: 100.0 mg/kg/injection, schedule: Q04DX003 (ip), vehicle: saline) 105 % of control; (dose: 200.0 mg/kg/injection, schedule: Q04DX003 (ip), vehicle: saline) 108 % of control; (dose: 400.0 mg/kg/injection, schedule: Q04DX003 (ip), vehicle: saline) 100 % of control.
As for `CC(C)(Nc1ccccc1)c1cccs1`, the T/C reads like this: under setting [10], 109 % of control; under setting [11], 109 % of control; (dose: 400.0 mg/kg/injection, schedule: Q01DX009 (ip), vehicle: saline with Tween-80) 95 % of control.
As for `CC1CN2COC(=S)SSSSC(=S)OCN3CC(C)N(COC(=S)SSSSC(=S)OCN1CC2C)CC3C` (centres undefined), the T/C is 99 % of control under setting [1], 103 % of control under setting [8] and 106 % of control under setting [9].
